The values below come from US20240109934A1, “ANTIBIOTICS WITH IMPROVED DRUG RESISTANCE PROFILE” (priority 2021, published 2024).

The conditions of data set [1]: cited from earlier work.
Data set [2] has as its system clinical isolates of S. aureus. The note with it: cited from earlier work.
Data set [3] concerns S. aureus ATCC 29213. Briefly: Resistance frequency, large inoculum method. Type of data set: cell-based. The protocol: Selection of Resistant Mutants. Resistant mutants were selected via the large inoculum method. Briefly, S. aureus ATCC 29213 (1×10^9 CFU) were plated on 100 mm plates of LB agar containing 4, 2, 1, 0.5, and 0.25 μg/mL.
Data set [4] has as its system S. aureus 29213. Briefly: MIC shift with 50% human serum. Type of data set: cell-based. Conditions: S. aureus 29213, 50% human serum vs none. As for the experimental part:
Antimicrobial Susceptibility Tests. Susceptibility testing was performed in biological triplicate, using the micro-dilution broth method as outlined by the Clinical and Laboratory Standards Institute. […] Human serum (Ultrafiltrate, unspecified gender, 30K Dalton membrane filtered) was purchased from BioIVT (Hicksville, NY).

Data set [5] can be described thus: Mouse MTD / tolerability. Conditions: mice. The protocol:
The protocol was approved by the IACUC at the University of Illinois at Urbana-Champaign (Protocol Number: 16144 and 19181). In these studies, 10- to 12-week-old female C57BL/6 mice purchased from Charles River were used. The maximum tolerated dose (MTD) of single compound was determined first. […] All the mice were monitored for signs of toxicity for 2 weeks. For multiple doses, the compound was given by daily IP for 4 consecutive days, and mice were monitored for signs of toxicity for 1 month. MTD was the highest dosage with acceptable toxicity (e.g., <20% weight loss).

Structures are written as SMILES. Where two headings read alike, the source gives them in different places.

`CC(=O)O[C@H]1C[C@@]2(C)[C@@H](C[C@@H](O)[C@H]3[C@@]4(C)CC[C@@H](O)[C@@H](C)[C@@H]4CC[C@@]32C)/C1=C(\CCC=C(C)C)C(=O)O` [FA, Fusidic acid]: the Half-life in humans in data set [1] (in vivo) is 10 to 14 h. The “Cmax (drug plasma level)” value in data set [1] (patients, front-loading regimen 3 g first day, 1.2 g daily thereafter) is reported as “greater than 130 μg/mL”. Further, in data set [2] (United States, analysis conducted in 2011), the “S. aureus strains susceptible” value was 99.7%. The MIC range in data set [2] (staphylococcal clinical isolates that carry the fusC gene) was 2 to 64 µg/mL; in data set [2] (strains that possess the fusB gene) it was 4 to 1024 µg/mL.

`CC(=O)O[C@H]1C[C@@]2(C)[C@@H](C[C@@H](O)[C@H]3[C@@]4(C)CC[C@@H](O)[C@@H](C)[C@@H]4CC[C@@]32C)/C1=C(\CCC=C1CCCC1)C(=O)O` [FA-CP, (Z)-2-((3R,4S,5S,8S,9S,10S,11R,13R,14S,16S)-16-acetoxy-3,11-dihydroxy-4,8,10,14-tetramethylhexadecahydro-17H-cyclopenta[a]phenanthren-17-ylidene)-5-cyclopentylidenepentanoic acid]: the “Resistance frequency relative to FA” value in data set [3] (at 2× and 32× the MIC) is reported as “modest improvement in resistance frequency”; in data set [3] (head-to-head with FA, 2×-32× the MIC), “improvement in resistance frequency relative to FA”. The “Fold Change Increase in MIC with 50% Human Serum” value in data set [4] is recorded as 8X. Besides, the Tolerability result in data set [5] (50 mg/kg IP once-a-day for 4 consecutive days) is “well tolerated”; in data set [5] (single dose of 50 mg/kg, IP injection), “well tolerated”.
